Assay results taken from patent US9303012B2, “Pyridine-2-amides useful as CB2 agonists” (Hoffmann-La Roche Inc., priority 2012, dated 2016).

Tests used:
human CB2 receptors = human CB2 receptors (Homo sapiens (Human), UniProt P34972); assay: functional cAMP assay, CHO cells expressing human CB2 receptors; assay type: cell-based
In short: (§1)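 Cells are seeded 17-24 h ahead, then preincubated in Krebs Ringer bicarbonate buffer with 1 mM IBMX at 30 °C. Compounds act for 30 min at 30 °C, after which lysis and cAMP detection reagents are added for 2 h at room temperature. Time-resolved FRET gives cAMP content, and EC50 values are fitted from it.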

human CB1 receptors = human CB1 receptors (Homo sapiens (Human), UniProt P21554); assay: functional cAMP assay, CHO cells expressing human CB1 receptors; assay type: cell-based
Chain of human CB1 receptors (P21554 whole entry): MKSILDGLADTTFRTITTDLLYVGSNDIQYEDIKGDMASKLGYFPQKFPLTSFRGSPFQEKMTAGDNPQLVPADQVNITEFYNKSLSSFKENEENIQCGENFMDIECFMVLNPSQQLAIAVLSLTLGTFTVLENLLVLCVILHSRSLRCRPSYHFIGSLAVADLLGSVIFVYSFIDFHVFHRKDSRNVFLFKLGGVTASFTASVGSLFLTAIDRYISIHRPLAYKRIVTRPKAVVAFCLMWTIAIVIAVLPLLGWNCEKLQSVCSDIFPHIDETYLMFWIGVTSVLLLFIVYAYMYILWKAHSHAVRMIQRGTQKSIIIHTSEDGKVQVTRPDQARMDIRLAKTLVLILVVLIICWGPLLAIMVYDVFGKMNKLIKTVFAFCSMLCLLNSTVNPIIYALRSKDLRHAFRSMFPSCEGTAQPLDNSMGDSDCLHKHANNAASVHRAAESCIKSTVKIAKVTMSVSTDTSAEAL
In short: as §1

Chain of human CB2 receptors (P34972 whole entry): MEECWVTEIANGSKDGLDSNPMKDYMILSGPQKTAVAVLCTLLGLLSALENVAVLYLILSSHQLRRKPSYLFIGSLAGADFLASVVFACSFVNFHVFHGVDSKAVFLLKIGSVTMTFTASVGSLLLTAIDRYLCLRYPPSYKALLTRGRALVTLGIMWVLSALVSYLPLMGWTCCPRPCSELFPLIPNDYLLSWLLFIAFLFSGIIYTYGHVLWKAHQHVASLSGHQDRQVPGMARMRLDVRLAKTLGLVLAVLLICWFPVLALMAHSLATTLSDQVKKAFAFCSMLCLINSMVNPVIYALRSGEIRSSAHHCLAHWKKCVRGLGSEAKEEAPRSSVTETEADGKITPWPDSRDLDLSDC

Row | Compound | EC50 (human CB2 receptors) [nM] | EC50 (human CB1 receptors) [nM]
1 | CC1(C)C[C@@H](C(N)=O)N(C(=O)c2ccc(N3CC(F)(F)C3)c(OCC3CC3)n2)C1 [Example 78, (−)-1-[6-Cyclopropylmethoxy-5-(3,3-difluoro-azetidin-1-yl)-pyridine-2-carbonyl]-4,4-dimethyl-pyrrolidine-2-carboxylic acid amide] | 1.2 | > 10000
2 | O=C(c1ccc(N2CC(F)(F)C2)c(OCC2CC2)n1)N(Cc1ccccc1)C1(C(F)(F)F)CC1 [Example 22, 6-Cyclopropylmethoxy-5-(3,3-difluoro-azetidin-1-yl)-pyridine-2-carboxylic acid benzyl-(1-trifluoromethyl-cyclopropyl)-amide] | 25 | > 10000
3 | O=C(c1ccc(N2CC(F)(F)C2)c(OCC2CC2)n1)N1CC(F)(CO)C1 [Example 148, [6-(Cyclopropylmethoxy)-5-(3,3-difluoroazetidin-1-yl)-2-pyridyl]-[3-fluoro-3-(hydroxymethyl)azetidin-1-yl]methanone] | 451 | > 10000
4 | CC(C)(C)N(CC(N)=O)C(=O)c1ccc(N2CC(F)(F)C2)c(OCC2CC2)n1 [Example 35, 6-Cyclopropylmethoxy-5-(3,3-difluoro-azetidin-1-yl)-pyridine-2-carboxylic acid tert-butyl-carbamoylmethyl-amide] | 183 | > 10000
5 | CC1(C)C(=O)NCCN1C(=O)c1ccc(N2CC(F)(F)C2)c(OCC2CC2)n1 [Example 28, 4-[6-Cyclopropylmethoxy-5-(3,3-difluoro-azetidin-1-yl)-pyridine-2-carbonyl]-3,3-dimethyl-piperazin-2-one] | 414 | > 10000
6 | CC(C)(C)N(Cc1ccccc1)C(=O)c1ccc(N2CC(F)(F)C2)c(OCC2CC2)n1 [Example 25, 6-Cyclopropylmethoxy-5-(3,3-difluoro-azetidin-1-yl)-pyridine-2-carboxylic acid benzyl-tert-butyl-amide] | 37 | > 10000
7 | CC1(F)CN(C(=O)c2ccc(N3CC(F)(F)C3)c(OCC3CC3)n2)C1 [Example 149, [6-(Cyclopropylmethoxy)-5-(3,3-difluoroazetidin-1-yl)-2-pyridyl]-(3-fluoro-3-methyl-azetidin-1-yl)methanone] | 79 | > 10000
8 | CC1(C)CCCN1C(=O)c1ccc(OCC2CC2)c(Cl)n1 [Example 47, (6-Chloro-5-cyclopropylmethoxy-pyridin-2-yl)-(2,2-dimethyl-pyrrolidin-1-yl)-methanone] | 113 | > 10000
9 | CC1(C)CC[C@@H](C(N)=O)N1C(=O)c1ccc(N2CC(F)(F)C2)c(OCC2CC2)n1 [Example 121, (S)-1-[6-Cyclopropylmethoxy-5-(3,3-difluoro-azetidin-1-yl)-pyridine-2-carbonyl]-5,5-dimethyl-pyrrolidine-2-carboxylic acid amide] | 112 | > 10000
10 | O=C(c1ccc(N2CC(F)(F)C2)c(OCC2CC2)n1)N1C[C@H]2CC[C@@H](C1)O2 [Example 85, [6-Cyclopropylmethoxy-5-(3,3-difluoro-azetidin-1-yl)-pyridin-2-yl]-(1S,5R)-8-oxa-3-aza-bicyclo[3.2.1]oct-3-yl-methanone] | 85.4 | > 10000
11 | CC1(C)COCN1C(=O)c1ccc(C2CC2)c(Cc2ccc(F)cc2)n1 [Example 44, [5-Cyclopropyl-6-(4-fluoro-benzyl)-pyridin-2-yl]-(4,4-dimethyl-oxazolidin-3-yl)-methanone] | 3.1 | 408
12 | O=C(c1ccc(N2CC(F)(F)C2)c(OCC2CC2)n1)N1CCC(C(O)C(F)(F)F)C1 (stereo not shown) [Example 136, [6-(Cyclopropylmethoxy)-5-(3,3-difluoroazetidin-1-yl)pyridin-2-yl]-[3-(2,2,2-trifluoro-1-hydroxyethyl)pyrrolidin-1-yl]methanone] | 32.9 | > 10000
13 | COCCN(C(=O)c1ccc(N2CC(F)(F)C2)c(OCC2CC2)n1)C(C)(C)C [Example 20, 6-Cyclopropylmethoxy-5-(3,3-difluoro-azetidin-1-yl)-pyridine-2-carboxylic acid tert-butyl-(2-methoxy-ethyl)-amide] | 5.3 | > 10000
14 | NC(=O)[C@H]1CS(=O)(=O)CN1C(=O)c1ccc(C2CC2)c(OCC2CC2)n1 [Example 117, (+)-3-(5-Cyclopropyl-6-cyclopropylmethoxy-pyridine-2-carbonyl)-1,1-dioxo-1λ^6-thiazolidine-4-carboxylic acid amide] | 485 | > 10000
15 | NC(=O)[C@@H]1C[S@+]([O-])CN1C(=O)c1ccc(C2CC2)c(OCC2CC2)n1 (single isomer, unassigned) [Example 116, (1S,4R)-3-(5-Cyclopropyl-6-cyclopropylmethoxy-pyridine-2-carbonyl)-1-oxo-1λ^4-thiazolidine-4-carboxylic acid amide or (1R,4S)-3-(5-cyclopropyl-6-cyclopropylmethoxy-pyridine-2-carbonyl)-1-oxo-1λ^4-thiazolidine-4-carboxylic acid amide] | 672 | > 10000
16 | O=C(c1ccc(N2CC(F)(F)C2)c(OCC2CC2)n1)N1CCC2(CC(O)CO2)C1 (stereo not shown) [Example 82, [6-Cyclopropylmethoxy-5-(3,3-difluoro-azetidin-1-yl)-pyridin-2-yl]-(3-hydroxy-1-oxa-7-aza-spiro[4.4]non-7-yl)-methanone] | 356 | > 10000
17 | Cn1nnnc1CN(C(=O)c1ccc(N2CC(F)(F)C2)c(OCC2CC2)n1)C(C)(C)C [Example 40, 6-Cyclopropylmethoxy-5-(3,3-difluoro-azetidin-1-yl)-pyridine-2-carboxylic acid tert-butyl-(1-methyl-1H-tetrazol-5-ylmethyl)-amide] | 81.8 | > 10000
18 | CN(C)C(=O)c1ccc(N2CC(F)(F)C2)c(OCC2CC2)n1 [Example 2, 6-Cyclopropylmethoxy-5-(3,3-difluoro-azetidin-1-yl)-pyridine-2-carboxylic acid dimethylamide] | 297 | > 10000
19 | NC(=O)[C@@H]1CS(=O)(=O)CN1C(=O)c1ccc(C2CC2)c(OCC2CC2)n1 [Example 115, (−)-3-(5-Cyclopropyl-6-cyclopropylmethoxy-pyridine-2-carbonyl)-1,1-dioxo-1λ^6-thiazolidine-4-carboxylic acid amide] | 7.2 | > 10000
20 | CCN(C(=O)c1ccc(N2CC(F)(F)C2)c(OCC2CC2)n1)C1(C(F)(F)F)CC1 [Example 21, 6-Cyclopropylmethoxy-5-(3,3-difluoro-azetidin-1-yl)-pyridine-2-carboxylic acid ethyl-(1-trifluoromethyl-cyclopropyl)-amide] | 2.8 | > 10000
21 | Cc1nc(C(C2CC2)N(C)C(=O)c2ccc(C3CC3)c(OCC3CCOCC3)n2)no1 (stereo not shown) [Example 33, 5-Cyclopropyl-6-(tetrahydro-pyran-4-ylmethoxy)-pyridine-2-carboxylic acid [cyclopropyl-(5-methyl-[1,2,4]oxadiazol-3-yl)-methyl]-methyl-amide] | 55.4 | > 10000
22 | NC(=O)[C@@H]1CC(F)(F)CN1C(=O)c1ccc(N2CC(F)(F)C2)c(OCCF)n1 [Example 147, (2S)-1-[5-(3,3-Difluoroazetidin-1-yl)-6-(2-fluoroethoxyl)pyridine-2-carbonyl]-4,4-difluoro-pyrrolidine-2-carboxamide] | 1170 | > 10000
23 | O=C(c1ccc(C2CC2)c(OCC2CC2)n1)N1CCC(C(O)C(F)(F)F)C1 (stereo not shown) [Example 141, [5-Cyclopropyl-6-(cyclopropylmethoxy)pyridin-2-yl]-[3-(2,2,2-trifluoro-1-hydroxyethyl)pyrrolidin-1-yl]methanone] | 262 | > 10000
24 | Cc1nnc(CN(C(=O)c2ccc(N3CC(F)(F)C3)c(OCC3CC3)n2)C(C)(C)C)o1 [Example 36, 6-Cyclopropylmethoxy-5-(3,3-difluoro-azetidin-1-yl)-pyridine-2-carboxylic acid tert-butyl-(5-methyl-[1,3,4]oxadiazol-2-ylmethyl)-amide] | 226 | > 10000
25 | CC1(C)COCN1C(=O)c1ccc(N2CC(F)(F)C2)c(OCC2CC2)n1 [Example 14, [6-Cyclopropylmethoxy-5-(3,3-difluoro-azetidin-1-yl)-pyridin-2-yl]-(4,4-dimethyl-oxazolidin-3-yl)-methanone] | 7.3 | > 10000
26 | CC1(O)C[C@@H](C(N)=O)N(C(=O)c2ccc(N3CC(F)(F)C3)c(OCC3CC3)n2)C1 (stereo partly drawn) [Example 132, (2S)-1-[6-(Cyclopropylmethoxy)-5-(3,3-difluoroazetidin-1-yl)pyridine-2-carbonyl]-4-hydroxy-4-methylpyrrolidine-2-carboxamide] | 30.1 | > 10000
27 | NC(=O)[C@@H]1CCCN1C(=O)c1ccc(C2CC2)c(OCC2CC2)n1 [Example 73, (S)-1-(5-Cyclopropyl-6-cyclopropylmethoxy-pyridine-2-carbonyl)-pyrrolidine-2-carboxylic acid amide] | 636 | > 10000
28 | CN(C)C(=O)CN(C(=O)c1ccc(N2CC(F)(F)C2)c(OCC2CC2)n1)C(C)(C)C [Example 27, 6-Cyclopropylmethoxy-5-(3,3-difluoro-azetidin-1-yl)-pyridine-2-carboxylic acid tert-butyl-dimethylcarbamoylmethyl-amide] | 774 | > 10000
29 | CC(C)C[C@H](c1cccnn1)N(C)C(=O)c1ccc(N2CC(F)(F)C2)c(OCC2CC2)n1 [Example 34, (+)-6-Cyclopropylmethoxy-5-(3,3-difluoro-azetidin-1-yl)-pyridine-2-carboxylic acid methyl-(3-methyl-1-pyridazin-3-yl-butyl)-amide] | 91.1 | > 10000
